# ChEMBL document CHEMBL1201862, “PubChem BioAssay data set” (2004)
# “And” between values parts separate entries of the source, which are not always exact repeats. Equal values may be shown once. The source made the active and inactive calls.
# How the values were obtained:
# [1] = biological target: Aryl hydrocarbon receptor (Homo sapiens, UniProt P35869); details: Potency;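 further: confirmatory quantitative high-throughput screen measuring activation of the AhR signaling pathway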
# [2] = biological target: Protein Wnt-3a (Mus musculus, UniProt P27467); test: antagonism of Wnt3a pathway luciferase reporter – Wnt-LIGHT cells, luminescence, selectivity assay for Gli-SUFU antagonist project, dose response (AID 651570); format: functional; details: read-out: IC50_Mean;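 further: Wnt-LIGHT reporter cells stimulated with conditioned medium from Wnt3a-producing cells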
# Protein Wnt-3a, sequence (P27467 whole entry): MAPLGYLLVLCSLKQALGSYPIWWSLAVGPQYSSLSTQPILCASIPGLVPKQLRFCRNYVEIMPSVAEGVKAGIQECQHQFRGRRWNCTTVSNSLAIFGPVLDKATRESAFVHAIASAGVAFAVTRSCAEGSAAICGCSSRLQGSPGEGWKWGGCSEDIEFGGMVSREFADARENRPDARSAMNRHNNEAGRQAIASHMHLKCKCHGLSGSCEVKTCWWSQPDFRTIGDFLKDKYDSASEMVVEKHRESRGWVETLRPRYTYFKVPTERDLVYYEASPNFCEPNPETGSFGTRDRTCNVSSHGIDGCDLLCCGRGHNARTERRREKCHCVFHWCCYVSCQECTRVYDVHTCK
# [3] = loss of viability in HepG2 cells – cell-based, CellTiter-Glo, cherry-picked, cytotoxicity control for Shn3 inhibitor project, dose response (AID 624134); format: functional
# [4] = reduction of Shn3 3'UTR-driven luciferase in osteoblasts – cell-based, Clone20 osteoblasts, firefly luciferase, cherry-picked, dose response (AID 624132); format: functional;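 further: firefly luciferase luminescence from reporter carrying the Shn3 3'UTR in osteoblasts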
# [5] = non-specific 3'UTR reporter inhibition in Clone20-Shn3RL – cell-based, Renilla luciferase, cherry-picked, counter-screen for Shn3 inhibitor project, dose response (AID 624133); format: functional
# [6] = Luminescence Cell-Based Dose Response HTS to Identify Inhibitors of 5'UTR Stem-Loop Driven Prion Protein mRNA Translation in H4 Neuroglioblastoma Cells. [Related pubchem assays: 1827 (Project Summary), 1813 (Primary HTS)]; format: functional
# [7] = biological target: DNA (cytosine-5)-methyltransferase 1 (Homo sapiens, UniProt P26358); test: inhibition of DNA methylation by DNMT1 – biochemical, fluorescent molecular beacon, confirmation (AID 602386); format: functional
# [8] = biological target: T1, DNA repair protein RAD52 homolog (Homo sapiens, UniProt P43351); format: functional, biochemical
# T1 sequence (P43351 whole entry): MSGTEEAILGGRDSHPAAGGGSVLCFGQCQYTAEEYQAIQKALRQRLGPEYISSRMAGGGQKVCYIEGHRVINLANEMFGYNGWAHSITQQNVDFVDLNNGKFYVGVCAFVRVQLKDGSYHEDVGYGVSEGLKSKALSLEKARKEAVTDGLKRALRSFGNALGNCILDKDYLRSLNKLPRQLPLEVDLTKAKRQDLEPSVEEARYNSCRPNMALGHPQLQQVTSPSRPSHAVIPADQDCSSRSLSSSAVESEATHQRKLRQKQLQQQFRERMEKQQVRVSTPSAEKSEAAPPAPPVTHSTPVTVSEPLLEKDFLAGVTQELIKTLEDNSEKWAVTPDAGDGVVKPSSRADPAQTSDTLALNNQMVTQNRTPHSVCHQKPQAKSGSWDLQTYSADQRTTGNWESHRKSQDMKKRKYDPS
# [9] = alpha-synuclein stem-loop luciferase translation blockers – H4 neuroglioma cells, luminescence, confirmation (AID 1988); format: functional, cell-based
# [10] = biological target: ATP-binding cassette sub-family B member 6 (Homo sapiens, UniProt Q9NP58); test: concentration-dependent ABCB6 porphyrin transport blockade – K562-ABCB6 cells, flow cytometry, cherry pick 1, dose response (AID 623955); format: functional; details: read-out: EC50_MICROM
# [11] = biological target: Nonstructural protein 1 (Influenza A virus, UniProt Q194T2); format: functional, Influenza A virus (A/California/07/2009(H1N1))
# Nonstructural protein 1, sequence (Q194T2 whole entry): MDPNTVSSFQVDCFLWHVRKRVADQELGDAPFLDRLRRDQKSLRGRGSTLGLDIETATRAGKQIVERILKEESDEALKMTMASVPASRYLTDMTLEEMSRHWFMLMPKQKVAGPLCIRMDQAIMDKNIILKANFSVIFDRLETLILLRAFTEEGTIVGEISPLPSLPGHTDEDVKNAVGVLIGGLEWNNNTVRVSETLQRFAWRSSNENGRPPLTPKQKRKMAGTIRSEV
# [12] = bead-based luminescence quenchers, dual-tagged ARNT – biochemical, AlphaScreen, cherry-pick, artefact control for ARNT-TACC3 interaction inhibitor project, dose response (AID 651705); format: functional;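 further: AlphaScreen bead proximity signal that flags compounds interfering with the detection technology; potency reflects signal decrease which marks the compound as an assay artifact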
# [13] = mammalian cell viability loss – Alamar Blue, dry powder, cytotoxicity control for antifungal single agent project, dose response (AID 602188); format: functional, cell-based
# [14] = COV362 cell viability loss – plate reader, dry powder, SA12, cytotoxicity control for PAX8 inhibitor project, dose response (AID 743144); format: functional, cell-based
# [15] = OVCAR4 cell viability loss – plate reader, dry powder, SA11, cytotoxicity control for PAX8 inhibitor project, dose response (AID 743150); format: functional, cell-based; details: OVCAR-4
# [16] = biological target: Beta-galactosidase (Escherichia coli, UniProt Q8VNN2); test: detection-enzyme interference by beta-gal modulators – biochemical, E. coli enzyme, set 3, artefact control for CCR6 antagonist project, dose response (AID 504712); format: functional
# Beta-galactosidase, sequence (Q8VNN2 whole entry): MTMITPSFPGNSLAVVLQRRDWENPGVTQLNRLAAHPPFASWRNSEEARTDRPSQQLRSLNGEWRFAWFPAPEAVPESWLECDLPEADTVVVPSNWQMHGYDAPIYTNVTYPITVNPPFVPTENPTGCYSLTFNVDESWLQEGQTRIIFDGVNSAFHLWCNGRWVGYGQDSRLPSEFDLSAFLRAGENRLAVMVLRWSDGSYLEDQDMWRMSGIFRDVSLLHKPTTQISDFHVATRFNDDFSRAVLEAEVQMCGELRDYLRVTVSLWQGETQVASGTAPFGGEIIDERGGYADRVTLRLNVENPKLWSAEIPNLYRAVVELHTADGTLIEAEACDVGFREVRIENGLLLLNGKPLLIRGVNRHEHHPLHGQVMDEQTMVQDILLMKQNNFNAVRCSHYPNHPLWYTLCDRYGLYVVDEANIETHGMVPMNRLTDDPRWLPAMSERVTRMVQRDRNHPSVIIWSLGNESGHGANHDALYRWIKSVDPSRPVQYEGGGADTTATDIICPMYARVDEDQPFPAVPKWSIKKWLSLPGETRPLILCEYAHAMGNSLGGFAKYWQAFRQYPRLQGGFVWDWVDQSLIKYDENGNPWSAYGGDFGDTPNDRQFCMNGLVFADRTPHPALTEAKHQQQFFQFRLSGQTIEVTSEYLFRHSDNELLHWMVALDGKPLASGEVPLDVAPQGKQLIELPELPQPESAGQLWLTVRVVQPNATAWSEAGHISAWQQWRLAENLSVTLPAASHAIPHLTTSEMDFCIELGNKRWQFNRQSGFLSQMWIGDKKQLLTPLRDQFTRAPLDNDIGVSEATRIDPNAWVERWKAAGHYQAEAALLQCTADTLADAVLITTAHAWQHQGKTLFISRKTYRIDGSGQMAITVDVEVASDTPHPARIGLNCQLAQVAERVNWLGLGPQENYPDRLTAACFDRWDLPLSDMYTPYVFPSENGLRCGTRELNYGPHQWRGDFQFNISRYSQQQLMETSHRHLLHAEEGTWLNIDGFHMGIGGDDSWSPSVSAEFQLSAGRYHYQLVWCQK
# [17] = test system: HEK293; test: inhibition of NOD1-driven NF-kB reporter – cell-based, luminescence, uHTS, primary screen (AID 1578); format: functional; details: Homo sapiens
# [18] = COV434 cell viability loss – plate reader, dry powder, SA7, cytotoxicity control for PAX8 inhibitor project, dose response (AID 743145); format: functional, cell-based
# [19] = test system: HEK293; test: cells; format: functional, cell-based; details: Homo sapiens
# [20] = biological target: Beta Lactamase (Pseudomonas aeruginosa, UniProt Q932Y6); test: BLA reporter interference, concentration series – BLA reporter cells, FRET fluorescence, artefact control for NOD2-RIPK2 interaction inhibitor project, dose response (AID 651552); format: functional, cell-based
# [21] = Fluorescence-based cell-based high throughput dose response assay for inhibitors of the interaction of nucleotide-binding oligomerization domain containing 2 (NOD2) and the receptor-interacting serine-threonine kinase 2 (RIPK2).; format: functional; details: Homo sapiens
# [22] = PAX8-dependent cell viability loss – plate reader, dry powder, dose response (AID 743049); format: functional, cell-based
# [23] = OVCAR-3 cell viability loss – plate reader, dry powder samples, PAX8 inhibitor project, dose response (AID 743044); format: functional, cell-based
# [24] = test system: HEK293; test: NOD2 signaling inhibitors in MDP-stimulated cells, cell-based, uHTS, luminescence (AID 2001); format: functional; details: Homo sapiens
# [25] = IGROV1 cell killing – plate reader, dry powder samples, PAX8 inhibitor project, dose response (AID 743043); format: functional, cell-based; details: IGROV-1
# [26] = OV-90 cell viability loss – plate reader, dry powder, SA8, PAX8 inhibitor project, dose response (AID 743149); format: functional, cell-based
# [27] = test system: HEK293; test: cells; format: functional, cell-based; details: Homo sapiens; remark: listed apart in the source
# [28] = biological target: Nucleotide-binding oligomerization domain-containing protein 2 (Homo sapiens, UniProt Q9HC29); test: inhibition of NOD2-driven NF-kB reporter – cell-based, luminescence, uHTS, HEK293 (AID 1566); format: functional
# Nucleotide-binding oligomerization domain-containing protein 2, sequence (Q9HC29 whole entry, the tested form may be a part): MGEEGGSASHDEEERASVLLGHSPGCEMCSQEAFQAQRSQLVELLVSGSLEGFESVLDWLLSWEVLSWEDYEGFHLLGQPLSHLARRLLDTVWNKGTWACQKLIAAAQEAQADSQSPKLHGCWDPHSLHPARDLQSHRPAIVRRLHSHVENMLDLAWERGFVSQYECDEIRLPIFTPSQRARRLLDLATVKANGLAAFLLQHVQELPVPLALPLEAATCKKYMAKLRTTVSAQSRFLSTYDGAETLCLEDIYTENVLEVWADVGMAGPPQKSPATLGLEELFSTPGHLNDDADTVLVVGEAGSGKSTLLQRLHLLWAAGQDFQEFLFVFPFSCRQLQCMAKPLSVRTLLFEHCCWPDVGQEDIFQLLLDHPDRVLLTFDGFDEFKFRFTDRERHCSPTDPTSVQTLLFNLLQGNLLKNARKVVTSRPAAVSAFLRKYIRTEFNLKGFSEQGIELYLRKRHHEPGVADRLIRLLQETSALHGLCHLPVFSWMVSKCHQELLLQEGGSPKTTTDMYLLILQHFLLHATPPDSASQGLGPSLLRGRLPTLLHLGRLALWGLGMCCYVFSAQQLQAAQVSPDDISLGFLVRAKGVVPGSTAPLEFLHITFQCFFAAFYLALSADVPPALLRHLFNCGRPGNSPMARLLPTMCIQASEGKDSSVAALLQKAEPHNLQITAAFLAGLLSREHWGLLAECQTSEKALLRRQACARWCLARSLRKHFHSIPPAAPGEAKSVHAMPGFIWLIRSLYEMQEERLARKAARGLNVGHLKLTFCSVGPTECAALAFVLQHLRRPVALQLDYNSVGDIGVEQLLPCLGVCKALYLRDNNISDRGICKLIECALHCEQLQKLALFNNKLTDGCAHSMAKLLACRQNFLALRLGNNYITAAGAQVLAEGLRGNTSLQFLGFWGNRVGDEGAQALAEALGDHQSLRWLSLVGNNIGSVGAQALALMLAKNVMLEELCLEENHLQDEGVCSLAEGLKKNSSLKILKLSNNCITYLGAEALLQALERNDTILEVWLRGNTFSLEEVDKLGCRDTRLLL
# [29] = test system: HEK293; test: cells; format: functional, cell-based; details: Homo sapiens; remark: listed apart in the source
# [30] = biological target: Paired box protein Pax-8 (Homo sapiens, UniProt Q06710); test: PAX8 transcriptional activity inhibition in RMG-I – RMG-I cells, luciferase, cherry-pick, dose response (AID 687027); format: functional, cell-based;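 further: luciferase reporter driven by Pax8 target thyroperoxidase promoter measured by SteadyGlo luminescence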
# [31] = biological target: Interleukin-8 (Homo sapiens, UniProt P10145); test: Dose Response confirmation of uHTS small molecule hits for cystic fibrosis induced NFkb Inhibitors in a PAF-induced IL8 counterscreen.; format: functional; details: read-out: IC50_Mean
# [32] = inhibition of ARNT PAS-B/TACC3 complex formation – biochemical, AlphaScreen, cherry-picked samples, confirmation (AID 651703); format: functional, Homo sapiens;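 further: His-tagged ARNT PAS-B domain paired with GST-TACC3 E629A dimer coactivator fragment; potency of inhibitors that break up the complex and lower AlphaScreen signal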
# [33] = biological target: T2, Sentrin-specific protease 8 (Homo sapiens, UniProt Q96LD8); format: functional
# T2 sequence (Q96LD8 whole entry): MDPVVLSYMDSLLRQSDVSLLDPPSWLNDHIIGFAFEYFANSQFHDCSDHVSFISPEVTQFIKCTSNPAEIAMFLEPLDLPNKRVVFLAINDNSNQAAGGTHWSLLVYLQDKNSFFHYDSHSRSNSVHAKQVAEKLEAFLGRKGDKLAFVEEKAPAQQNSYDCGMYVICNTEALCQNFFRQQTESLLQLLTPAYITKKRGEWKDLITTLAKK
# [34] = biological target: T2, Sentrin-specific protease 8; format: functional; remark: listed apart in the source
# [35] = biological target: Hepatocyte nuclear factor 4-alpha (Homo sapiens, UniProt P41235); format: functional, cell-based;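 further: biochemical luminescence-based dose-response counterscreen measuring inhibition of HNF4 dimerization, run alongside a screen for blockers of ABHD5–perilipin-5 interaction; split luciferase complementation of HNF4 fusion proteins in cell lysate measuring dimerization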
# Hepatocyte nuclear factor 4-alpha, sequence (P41235 whole entry, the tested form may be a part): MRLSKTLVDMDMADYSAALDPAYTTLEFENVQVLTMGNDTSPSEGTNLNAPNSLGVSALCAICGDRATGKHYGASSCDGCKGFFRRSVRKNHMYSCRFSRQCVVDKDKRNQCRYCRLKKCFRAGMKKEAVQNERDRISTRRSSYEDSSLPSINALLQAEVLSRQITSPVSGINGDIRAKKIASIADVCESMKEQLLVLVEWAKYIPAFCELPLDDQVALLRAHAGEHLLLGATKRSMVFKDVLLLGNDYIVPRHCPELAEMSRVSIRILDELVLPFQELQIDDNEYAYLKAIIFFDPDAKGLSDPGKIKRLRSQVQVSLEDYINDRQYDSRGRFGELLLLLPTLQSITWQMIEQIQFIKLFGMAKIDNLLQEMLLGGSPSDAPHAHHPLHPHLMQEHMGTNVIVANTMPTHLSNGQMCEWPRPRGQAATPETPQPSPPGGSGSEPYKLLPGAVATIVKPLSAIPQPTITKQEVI
# [36] = biological target: ATP-dependent molecular chaperone HSP82 (Candida albicans (strain WO-1) (Yeast), UniProt C4YTQ8); test: steroid-induced GRE reporter decrease in yeast – S. cerevisiae, luminescence, Hsp90 inhibitor project, dose response (AID 2400); format: functional, cell-based;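 further: beta-galactosidase luminescence from glucocorticoid response element reporter as proxy for Hsp90 function; inhibitor potency where signal loss means Hsp90 inhibition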
# ATP-dependent molecular chaperone HSP82, sequence (C4YTQ8 whole entry): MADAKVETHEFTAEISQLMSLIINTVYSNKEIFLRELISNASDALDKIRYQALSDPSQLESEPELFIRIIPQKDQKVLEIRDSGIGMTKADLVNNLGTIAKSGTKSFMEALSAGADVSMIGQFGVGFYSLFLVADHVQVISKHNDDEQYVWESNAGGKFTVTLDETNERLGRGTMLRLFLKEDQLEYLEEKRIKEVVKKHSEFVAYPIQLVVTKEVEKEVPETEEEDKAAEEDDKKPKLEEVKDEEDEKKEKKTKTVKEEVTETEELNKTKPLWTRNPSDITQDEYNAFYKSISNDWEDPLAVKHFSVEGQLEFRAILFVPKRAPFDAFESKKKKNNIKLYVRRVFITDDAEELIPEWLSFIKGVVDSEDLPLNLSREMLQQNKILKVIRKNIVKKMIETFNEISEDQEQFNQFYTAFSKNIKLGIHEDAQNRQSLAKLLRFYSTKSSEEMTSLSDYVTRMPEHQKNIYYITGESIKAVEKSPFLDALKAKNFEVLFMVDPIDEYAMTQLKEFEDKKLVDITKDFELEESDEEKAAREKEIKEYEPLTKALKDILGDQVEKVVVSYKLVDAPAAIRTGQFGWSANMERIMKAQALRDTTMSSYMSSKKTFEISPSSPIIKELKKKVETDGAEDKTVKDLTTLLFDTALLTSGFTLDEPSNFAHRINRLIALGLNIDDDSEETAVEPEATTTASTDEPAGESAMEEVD
# [37] = biological target: T3, Rac GTPase-activating protein 1 (Homo sapiens, UniProt Q9H0H5); test: blockers of MgcRacGAP-driven Rac1 GTP hydrolysis – biochemical, ADP Hunter fluorescence, primary and confirmatory, confirmation (AID 624330); format: functional
# T3 sequence (Q9H0H5 whole entry): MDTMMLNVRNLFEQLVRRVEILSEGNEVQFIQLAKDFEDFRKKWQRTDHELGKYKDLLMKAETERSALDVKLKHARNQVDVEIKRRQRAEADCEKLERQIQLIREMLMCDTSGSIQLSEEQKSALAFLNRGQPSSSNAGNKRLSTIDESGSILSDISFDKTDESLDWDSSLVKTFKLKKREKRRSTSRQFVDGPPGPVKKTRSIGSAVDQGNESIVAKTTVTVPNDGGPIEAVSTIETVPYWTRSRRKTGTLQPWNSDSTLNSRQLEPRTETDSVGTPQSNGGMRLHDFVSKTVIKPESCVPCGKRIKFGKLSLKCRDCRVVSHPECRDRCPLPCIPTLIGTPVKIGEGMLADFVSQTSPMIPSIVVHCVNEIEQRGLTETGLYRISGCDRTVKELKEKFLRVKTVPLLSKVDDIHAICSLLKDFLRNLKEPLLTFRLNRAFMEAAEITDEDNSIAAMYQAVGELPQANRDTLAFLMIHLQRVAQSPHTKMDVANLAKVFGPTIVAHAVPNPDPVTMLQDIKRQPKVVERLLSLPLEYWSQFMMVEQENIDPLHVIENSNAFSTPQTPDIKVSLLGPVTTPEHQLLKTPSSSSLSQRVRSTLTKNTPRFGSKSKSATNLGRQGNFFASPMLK
# [38] = biological target: T4, CAAX prenyl protease 2 (Saccharomyces cerevisiae S288c, UniProt Q03530); format: biochemical
# T4 sequence (Q03530 whole entry): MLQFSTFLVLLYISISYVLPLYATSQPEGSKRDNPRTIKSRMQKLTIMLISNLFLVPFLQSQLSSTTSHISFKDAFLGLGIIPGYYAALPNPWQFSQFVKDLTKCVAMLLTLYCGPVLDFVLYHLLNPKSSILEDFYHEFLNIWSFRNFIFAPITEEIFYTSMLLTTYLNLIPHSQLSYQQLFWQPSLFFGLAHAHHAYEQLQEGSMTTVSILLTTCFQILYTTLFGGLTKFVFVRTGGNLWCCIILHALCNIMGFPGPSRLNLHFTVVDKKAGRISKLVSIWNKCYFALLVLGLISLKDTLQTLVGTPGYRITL
# [39] = biological target: CAAX prenyl protease 2 (Homo sapiens, UniProt Q9Y256); test: inhibition of Ras-converting CAAX protease Rce1 – biochemical, yeast membranes, quenched-peptide fluorescence, cherry-pick, dose response (AID 588849)
# CAAX prenyl protease 2 (Homo sapiens, UniProt Q9Y256), sequence (Q9Y256 whole entry): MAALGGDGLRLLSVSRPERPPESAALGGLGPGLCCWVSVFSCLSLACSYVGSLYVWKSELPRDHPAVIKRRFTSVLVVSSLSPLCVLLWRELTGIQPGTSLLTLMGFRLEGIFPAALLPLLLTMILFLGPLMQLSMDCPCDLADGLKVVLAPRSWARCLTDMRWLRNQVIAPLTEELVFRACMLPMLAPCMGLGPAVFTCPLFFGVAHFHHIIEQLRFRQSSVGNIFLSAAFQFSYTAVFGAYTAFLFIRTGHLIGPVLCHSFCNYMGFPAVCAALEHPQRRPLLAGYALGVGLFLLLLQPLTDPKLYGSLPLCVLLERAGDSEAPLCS
# [40] = biological target: Melanocortin receptor 4 (Homo sapiens, UniProt P32245); test: inhibitors of MC4R cAMP signaling – cell-based, TR-FRET, biased antagonists, dose response (AID 602298); format: functional;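 further: antagonist potency against agonist-stimulated cAMP production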
# Aryl hydrocarbon receptor, sequence (P35869 whole entry): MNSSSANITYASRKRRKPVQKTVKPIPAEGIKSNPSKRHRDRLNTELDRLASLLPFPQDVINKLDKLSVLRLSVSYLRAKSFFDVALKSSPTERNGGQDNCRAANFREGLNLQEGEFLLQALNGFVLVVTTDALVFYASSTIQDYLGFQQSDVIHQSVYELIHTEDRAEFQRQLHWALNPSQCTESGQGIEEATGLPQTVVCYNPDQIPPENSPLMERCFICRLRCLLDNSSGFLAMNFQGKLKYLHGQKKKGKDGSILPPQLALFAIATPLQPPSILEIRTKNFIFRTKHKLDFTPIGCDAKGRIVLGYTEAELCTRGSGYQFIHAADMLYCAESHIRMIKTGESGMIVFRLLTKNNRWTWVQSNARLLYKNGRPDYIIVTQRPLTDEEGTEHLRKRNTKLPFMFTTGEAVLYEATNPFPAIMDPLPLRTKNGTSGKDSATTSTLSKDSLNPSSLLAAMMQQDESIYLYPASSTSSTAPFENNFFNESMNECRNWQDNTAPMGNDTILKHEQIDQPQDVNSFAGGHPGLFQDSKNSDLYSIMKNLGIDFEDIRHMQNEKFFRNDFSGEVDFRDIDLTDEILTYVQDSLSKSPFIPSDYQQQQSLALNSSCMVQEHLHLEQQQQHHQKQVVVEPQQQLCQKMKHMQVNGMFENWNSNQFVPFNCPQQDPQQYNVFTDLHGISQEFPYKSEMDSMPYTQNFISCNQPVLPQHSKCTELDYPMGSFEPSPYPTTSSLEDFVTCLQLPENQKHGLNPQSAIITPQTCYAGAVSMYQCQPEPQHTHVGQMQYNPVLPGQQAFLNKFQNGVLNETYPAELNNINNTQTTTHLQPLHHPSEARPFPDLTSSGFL
compound,measurement,setting,value
Nc1ccc(N)c(Cl)c1,AC50,[1],31.6 µM (inconclusive)
COCCOc1nc2c(c(=O)n(C)c(=O)n2C)n1Cc1cccc(OC)c1,IC50,[2],6.29 µM (active)
same,AC50,[3],59.9 µM (active)
same,AC50,[4],2.23 µM (active)
same,AC50,[5],4.09 µM (active)
CC1(C)CC(N=c2cc(-c3ccccc3)oc3ccc(Cl)cc23)CC(C)(C)N1,EC50,[6],> 120 µM (not active)
same,IC50,[7],> 99 µM (inactive)
same,AC50,[8],0.689 µM (active)
same,EC50,[9],> 60 µM (not active)
C[N+](C)(C)CC1CCCC(C[N+](C)(C)C)C1=O (stereo unspecified),EC50,[10],4.14 µM (active)
COc1cc([N+](=O)[O-])cc(/C=N/NC(=O)Cn2cncn2)c1O,IC50,[11],10.1 µM (active)
same,AC50,[12],85 µM (active)
O=C(Nc1nc(-c2ccccn2)cs1)c1ccccc1,AC50,[13],7.19 µM (active)
COc1cccc2sc(N(CCCN(C)C)C(=O)CCS(=O)(=O)c3ccccc3)nc12,AC50,[14],13.9 µM (active)
same,AC50,[15],22.1 µM (active)
same,IC50,[16],> 66.6 µM (inactive)
same,EC50,[17],8.24 µM (active)
same,AC50,[18],12.9 µM (active)
same,IC50,[19],> 20 µM (inactive)
same,IC50,[20],17.2 µM (inactive)
same,IC50,[21],4.68 µM (active)
same,AC50,[22],8.54 µM (active)
same,AC50,[23],10 µM (active)
same,IC50,[24],6.06 µM (active)
same,AC50,[25],28.7 µM (active)
same,AC50,[26],43.1 µM (active)
same,IC50,[27],5.96 µM (active)
same,EC50,[28],> 20 µM (inactive)
same,IC50,[29],> 20 µM (inactive)
same,AC50,[30],7.04 µM (active)
Cc1ccc2occ(/C=N/NC(=O)c3ccccc3Br)c(=O)c2c1,IC50,[31],3.77 µM (active)
Cc1ccoc1C(=O)NCCCNC(=O)c1occc1C,AC50,[32],84.7 µM (active)
same,IC50,[33],8.27 µM (active)
same,IC50,[34],12.7 µM (active)
[H]/N=C(\N/C(=N/[H])NCCCCCCNC(=N)NC(=N)Nc1ccc(Cl)cc1)Nc1ccc(Cl)cc1,IC50,[35],21.4 µM (inactive)
same,EC50,[36],19.8 µM (active) and > 160 µM (inactive)
same,AC50,[8],17.4 µM (active)
same,IC50,[37],42.3 µM (active)
same,AC50,[38],23.1 µM (active)
same,AC50,[39],12.9 µM (active)
same,IC50,[40],1.55 µM (active)
